From US6495593B1, “Compositions for preventing or treating adverse physiological effects associated with cardiac disease” (Dry Creek Nutrition, Inc., priority 1999, dated 2002) come the findings set out here.

Experiment [1] can be described thus: In vitro hydroxyl radical scavenging assay (γ-irradiated coumarin-3-carboxylic acid). To be noted: 1 mM; 10^-5 M CCA, γ-irradiation. The protocol:
Aqueous solution of coumarin-3-carboxylic acid (CCA) was diluted in PBS buffer, pH 7.4 to give a final concentration of 10^−5 M. Polymethylmethacrylate cuvettes containing 2.5 mL CCA solution were irradiated with ^137Cs γ-ray (dose rate 1.14 Gy/min) (MDS Nordian., Ontario, Canada) at room temperature. […] Fluorescence was measured at room temperature with a Perkin Elmer LS 50 fluorimeter (excitation 400 nm, emission 450 nm) (Collins et al., “Coumarin Chemical Dosimeter for Radiation Therapy,” Med. Phys., 21: 1741-1747 (1994)). […] The scavenging activity of the proanthocyanidin extract was compared against 1 mM DMSO.

Experiment [2] is described as follows: In vitro peroxyl radical scavenging assay (AAPH / 5-/6-carboxyfluorescein). The settings on record: 25 μg/mL; AAPH 2 mM. The procedure:
Peroxyl radical scavenging activity was examined by adding proanthocyanidin to a peroxyl radical generating system (Makrigiorgos et al., “Novel Fluorescein-Based Flow Cytometric Method for Detection of Lipid Peroxidation,” Free Rad. Biol. Med., 22:93-100 (1997)). Peroxyl radicals were generated by dissolving 2,2′-azobis (2-amidinopropane) dihydrochloride (AAPH) in phosphate buffered saline (PBS) at 37° C. Scavenging activity of proanthocyanidin was compared with trolox (100 μM), a known peroxyl radical scavenger.

Molecules are shown by their SMILES.

As for `C[S+](C)[O-]` [DMSO, dimethyl sulfoxide], the “induction of 7-OH-CCA formation (hydroxyl radical scavenging)” value in experiment [1] is listed as “reduced the induction of 7-OH-CCA formation”.
`Cc1c(C)c2c(c(C)c1O)CCC(C)(C(=O)O)O2` (centres unmarked) [trolox]: in experiment [2], the “peroxyl radical scavenging activity relative to proanthocyanidin 10 μg/mL” value was “comparable”.
